Source: paper PMC11062922 (Nature Chemical Biology, 2023)
Read-outs that look alike come from different tables or passages of the source.

Key:
[1] = tested on: ERBB2; conditions: ERBB2 (2nd target, 2nd value); ref chemicalprobes.org; cited from earlier work
[2] = biological target: T1, PRKACB (Homo sapiens, UniProt P22694); experiment: Kinobeads full dose-response competition binding: PRKACB; conditions: Gene Name PRKACB
T1 construct: endogenous in cells

[3] = biological target: T2, PRKX (Homo sapiens, UniProt P51817); experiment: Kinobeads full dose-response competition binding: PRKX; conditions: Gene Name PRKX; for Relative Intensity 0.3nM: 0.3nM compound; for Relative Intensity 0.3nM / Relative Intensity 1nM / Relative Intensity 3nM / Relative Intensity 10nM / Relative Intensity 30nM / Relative Intensity 100nM / Relative Intensity 300nM / Relative Intensity 1000nM: DMSO = 1; for Relative Intensity 1nM: 1nM compound; for Relative Intensity 3nM: 3nM compound; for Relative Intensity 10nM: 10nM compound; for Relative Intensity 30nM: 30nM compound; for Relative Intensity 100nM: 100nM compound; for Relative Intensity 300nM: 300nM compound; for Relative Intensity 1000nM: 1000nM compound; for Kd: EC50 with Correction, read-out: apparent Kd; for Kd / EC50: doses in nM; for EC50: eight-dose curve fit
T2 construct: endogenous in cells
T2 sequence (P51817 1-358): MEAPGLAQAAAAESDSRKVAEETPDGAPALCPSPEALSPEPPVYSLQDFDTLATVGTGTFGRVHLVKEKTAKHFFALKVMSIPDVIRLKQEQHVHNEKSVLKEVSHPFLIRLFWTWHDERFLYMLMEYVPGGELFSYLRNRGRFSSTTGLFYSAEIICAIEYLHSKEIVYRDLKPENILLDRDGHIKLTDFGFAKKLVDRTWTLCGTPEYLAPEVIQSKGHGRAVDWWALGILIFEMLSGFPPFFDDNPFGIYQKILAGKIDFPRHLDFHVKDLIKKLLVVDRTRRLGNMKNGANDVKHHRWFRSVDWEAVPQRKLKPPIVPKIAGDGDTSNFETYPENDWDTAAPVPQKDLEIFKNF

[4] = biological target: T3, GSK3B (Homo sapiens, UniProt P49841); experiment: Kinobeads full dose-response competition binding: GSK3B; conditions: Gene Name GSK3B; for Relative Intensity 0.3nM: 0.3nM compound; for Relative Intensity 0.3nM / Relative Intensity 1nM / Relative Intensity 3nM / Relative Intensity 10nM / Relative Intensity 30nM / Relative Intensity 100nM / Relative Intensity 300nM / Relative Intensity 1000nM: DMSO = 1; for Relative Intensity 1nM: 1nM compound; for Relative Intensity 3nM: 3nM compound; for Relative Intensity 10nM: 10nM compound; for Relative Intensity 30nM: 30nM compound; for Relative Intensity 100nM: 100nM compound; for Relative Intensity 300nM: 300nM compound; for Relative Intensity 1000nM: 1000nM compound; for Kd: EC50 with Correction, read-out: apparent Kd; for Kd / EC50: doses in nM; for EC50: eight-dose curve fit
T3 construct: endogenous in cells
T3 sequence (P49841 whole entry): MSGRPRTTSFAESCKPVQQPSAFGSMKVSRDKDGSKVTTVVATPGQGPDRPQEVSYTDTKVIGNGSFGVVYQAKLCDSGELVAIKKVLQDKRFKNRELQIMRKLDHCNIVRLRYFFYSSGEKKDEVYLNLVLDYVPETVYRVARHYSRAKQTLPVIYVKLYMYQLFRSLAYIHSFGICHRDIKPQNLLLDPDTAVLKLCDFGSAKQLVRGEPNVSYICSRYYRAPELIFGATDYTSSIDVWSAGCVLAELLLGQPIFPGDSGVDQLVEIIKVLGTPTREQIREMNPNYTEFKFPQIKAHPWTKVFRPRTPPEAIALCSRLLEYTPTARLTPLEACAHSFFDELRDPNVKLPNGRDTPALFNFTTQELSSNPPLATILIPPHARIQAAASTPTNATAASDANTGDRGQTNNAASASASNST

[5] = biological target: CSNK2A2 (Homo sapiens, UniProt P19784); experiment: NanoBRET in-cell target engagement in HEK293T cells: CSNK2A2; format: cell-based; design: full-length PKN3, CSNK2A1 or CSNK2A2 ORF; host or cells: HEK293T
Chain of CSNK2A2 (P19784 whole entry, the tested form may be a part): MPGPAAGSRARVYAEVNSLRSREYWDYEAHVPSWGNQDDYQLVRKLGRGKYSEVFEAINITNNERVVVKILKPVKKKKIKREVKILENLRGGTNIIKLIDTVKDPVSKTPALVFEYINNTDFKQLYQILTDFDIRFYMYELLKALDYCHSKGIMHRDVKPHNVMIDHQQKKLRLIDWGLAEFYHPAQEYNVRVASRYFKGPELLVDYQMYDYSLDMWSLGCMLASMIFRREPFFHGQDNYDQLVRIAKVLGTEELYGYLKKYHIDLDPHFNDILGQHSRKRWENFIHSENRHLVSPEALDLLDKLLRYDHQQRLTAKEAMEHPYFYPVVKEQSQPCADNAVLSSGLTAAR
Description: (§1) The NanoBRET assay was performed as described previously[28],[58]. In brief, full-length PKN3, CSNK2A1 or CSNK2A2 ORF (PKN3 vector was a kind gift of Promega, Vectors for […]: NV2981, NV1191) cloned in frame with a C-terminal NanoLuc-fusion, respectively, were transfected into HEK293T cells using FuGENE HD (Promega, E2312) and proteins were allowed to express for 20 h. Serially diluted inhibitor and NanoBRET Kinase Tracer K5 (Promega, N2530) at 500 nM (PKN3) or NanoBRET Kinase Tracer K10 (Promega, N2840) at 500 nM ([…]) were pipetted into 384-well plates using an Echo acoustic dispenser (Labcyte). The PKN3, CSNK2A1 or CSNK2A2 transfected cells were added at a density of 2 × 10^5 cells per ml after trypsinization and resuspending in Opti-MEM without phenol red (Life Technologies). The system was allowed to equilibrate for 2 h at 37 °C and 5% CO2 before BRET measurements. BRET signaling was measured by adding NanoBRET NanoGlo Substrate and Extracellular NanoLuc Inhibitor (Promega) according to the manufacturer’s protocol. Filtered luminescence was measured on a PHERAstar plate reader (BMG Labtech) equipped with a luminescence filter pair (450 nm BP filter (donor) and 610 LP filter (acceptor)). Competitive displacement data were then graphed using GraphPad Prism software (v.5.01) using a three-parameter curve fit with the following equation Y=bottom+(top−bottom)/1+10^logIC50−X×hillslope
(§2) Experiments were performed with at least two biological and two technical replicates.

[6] = biological target: T4, CSNK2A1 (Homo sapiens, UniProt P68400); experiment: NanoBRET in-cell target engagement in HEK293T cells: CSNK2A1; format: cell-based
T4 construct: full-length PKN3, CSNK2A1 or CSNK2A2 ORF; host or cells: HEK293T
T4 sequence (P68400 whole entry): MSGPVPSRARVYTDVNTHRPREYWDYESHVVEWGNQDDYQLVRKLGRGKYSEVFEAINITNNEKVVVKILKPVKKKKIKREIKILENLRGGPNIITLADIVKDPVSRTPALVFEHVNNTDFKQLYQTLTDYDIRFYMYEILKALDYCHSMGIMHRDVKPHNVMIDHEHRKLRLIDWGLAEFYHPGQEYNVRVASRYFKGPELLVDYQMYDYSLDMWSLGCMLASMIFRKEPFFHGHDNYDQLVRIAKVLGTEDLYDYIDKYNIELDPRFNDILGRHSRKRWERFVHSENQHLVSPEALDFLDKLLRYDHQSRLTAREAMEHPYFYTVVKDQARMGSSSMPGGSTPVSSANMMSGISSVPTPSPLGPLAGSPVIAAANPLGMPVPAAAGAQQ
Description: as §1, §2

[7] = biological target: T5, FRK (Homo sapiens, UniProt P42685); experiment: Kinobeads two-dose competition binding: FRK; conditions: read-out: Lestaurtinib Drugmatrix value, Gene Name FRK; target FRK; each column = one Lestaurtinib control replicate (batch_R1-R3)
T5 construct: endogenous in cells
T5 sequence (P42685 whole entry): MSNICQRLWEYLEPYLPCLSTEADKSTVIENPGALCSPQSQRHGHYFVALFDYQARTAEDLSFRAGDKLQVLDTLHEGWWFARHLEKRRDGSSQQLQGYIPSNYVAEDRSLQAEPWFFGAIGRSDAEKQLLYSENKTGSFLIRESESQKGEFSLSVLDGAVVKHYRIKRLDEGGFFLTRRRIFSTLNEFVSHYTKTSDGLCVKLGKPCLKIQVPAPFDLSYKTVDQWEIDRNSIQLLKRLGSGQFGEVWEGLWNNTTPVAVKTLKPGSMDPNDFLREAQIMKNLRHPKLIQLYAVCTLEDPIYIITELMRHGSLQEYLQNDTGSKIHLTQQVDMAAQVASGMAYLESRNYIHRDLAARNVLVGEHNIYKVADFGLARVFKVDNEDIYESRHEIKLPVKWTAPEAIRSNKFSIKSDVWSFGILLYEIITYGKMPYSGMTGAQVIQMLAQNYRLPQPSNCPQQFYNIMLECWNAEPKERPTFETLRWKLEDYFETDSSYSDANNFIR

[8] = biological target: T6, FLT4 (Homo sapiens, UniProt P35916); experiment: Kinobeads two-dose competition binding: FLT4; conditions: read-out: Lestaurtinib Drugmatrix value, Gene Name FLT4
T6 construct: endogenous in cells
T6 sequence (P35916 25-1363): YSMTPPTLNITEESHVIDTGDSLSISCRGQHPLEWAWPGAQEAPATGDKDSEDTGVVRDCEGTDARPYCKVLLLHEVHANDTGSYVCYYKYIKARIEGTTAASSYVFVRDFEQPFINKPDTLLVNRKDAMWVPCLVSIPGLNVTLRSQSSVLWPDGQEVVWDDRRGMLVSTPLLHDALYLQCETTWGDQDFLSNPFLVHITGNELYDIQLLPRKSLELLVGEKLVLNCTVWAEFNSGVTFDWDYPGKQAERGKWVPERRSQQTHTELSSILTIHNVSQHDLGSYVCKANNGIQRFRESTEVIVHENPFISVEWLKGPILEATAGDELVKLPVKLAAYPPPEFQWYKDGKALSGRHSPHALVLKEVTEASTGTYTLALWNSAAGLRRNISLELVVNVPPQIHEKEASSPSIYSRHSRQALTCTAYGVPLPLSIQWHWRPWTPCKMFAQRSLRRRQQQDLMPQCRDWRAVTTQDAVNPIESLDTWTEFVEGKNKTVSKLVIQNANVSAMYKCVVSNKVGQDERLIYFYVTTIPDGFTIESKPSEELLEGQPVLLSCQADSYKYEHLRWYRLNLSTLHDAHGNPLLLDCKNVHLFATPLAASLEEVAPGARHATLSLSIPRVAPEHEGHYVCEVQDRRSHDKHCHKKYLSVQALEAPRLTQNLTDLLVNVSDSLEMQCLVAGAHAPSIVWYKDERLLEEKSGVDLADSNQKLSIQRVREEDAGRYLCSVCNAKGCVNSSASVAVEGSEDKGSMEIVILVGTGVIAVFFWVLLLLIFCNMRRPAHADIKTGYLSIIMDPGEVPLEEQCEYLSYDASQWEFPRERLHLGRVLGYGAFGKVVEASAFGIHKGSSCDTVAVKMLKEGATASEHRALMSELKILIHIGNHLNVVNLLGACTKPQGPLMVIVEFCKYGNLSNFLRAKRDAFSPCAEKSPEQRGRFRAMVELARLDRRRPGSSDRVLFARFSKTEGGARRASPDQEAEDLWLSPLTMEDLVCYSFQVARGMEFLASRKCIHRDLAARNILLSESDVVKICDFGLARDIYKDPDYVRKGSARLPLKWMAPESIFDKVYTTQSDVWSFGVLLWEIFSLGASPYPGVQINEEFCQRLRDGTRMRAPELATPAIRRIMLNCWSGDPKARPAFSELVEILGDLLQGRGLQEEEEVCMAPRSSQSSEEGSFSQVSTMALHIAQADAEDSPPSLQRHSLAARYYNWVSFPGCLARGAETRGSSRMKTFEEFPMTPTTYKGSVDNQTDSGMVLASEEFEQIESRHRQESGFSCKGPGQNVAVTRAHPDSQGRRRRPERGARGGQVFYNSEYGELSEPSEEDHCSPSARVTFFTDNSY

[9] = biological target: T7, CSNK1D (Homo sapiens, UniProt P48730); experiment: Kinobeads full dose-response competition binding: CSNK1D; conditions: Gene Name CSNK1D
T7 construct: endogenous in cells
T7 sequence (P48730 whole entry): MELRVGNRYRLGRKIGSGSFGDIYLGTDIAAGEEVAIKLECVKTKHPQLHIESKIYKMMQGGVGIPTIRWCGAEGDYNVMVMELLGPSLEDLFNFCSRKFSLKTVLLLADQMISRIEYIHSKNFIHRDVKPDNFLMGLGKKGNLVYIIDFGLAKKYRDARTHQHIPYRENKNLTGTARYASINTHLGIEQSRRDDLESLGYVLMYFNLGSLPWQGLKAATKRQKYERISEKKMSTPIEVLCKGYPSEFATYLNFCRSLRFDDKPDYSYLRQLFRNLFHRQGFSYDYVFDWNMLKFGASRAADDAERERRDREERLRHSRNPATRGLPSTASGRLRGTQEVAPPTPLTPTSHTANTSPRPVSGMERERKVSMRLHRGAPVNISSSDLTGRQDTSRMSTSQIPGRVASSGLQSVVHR

[10] = EC50 with Correction, doses in nM, read-out: apparent Kd
[11] = eight-dose curve fit, doses in nM

SMILES	Relative Intensity 0.3nM [3]	Relative Intensity 1nM [3]	Relative Intensity 3nM [3]	Relative Intensity 10nM [3]	Relative Intensity 30nM [3]	Relative Intensity 100nM [3]	Relative Intensity 300nM [3]	Relative Intensity 1000nM [3]	Kd [3]	EC50 [3]	Relative Intensity 0.3nM [4]	Relative Intensity 1nM [4]	Relative Intensity 3nM [4]	Relative Intensity 10nM [4]	Relative Intensity 30nM [4]	Relative Intensity 100nM [4]	Relative Intensity 300nM [4]	Relative Intensity 1000nM [4]	Kd [4]	EC50 [4]	further results
CN(C)C/C=C/C(=O)Nc1cc2c(Nc3ccc(F)c(Cl)c3)ncnc2cc1O[C@H]1CCOC1 [Afatinib]	–	–	–	–	–	–	–	–	–	–	–	–	–	–	–	–	–	–	–	–	Potency value [1]: 0.5 nM, 14 nM
CCn1c(-c2nonc2N)nc2c(C#CC(C)(C)O)nc(OCCN)cc21 [GSK902056A]	0.9197	0.9321	1.015	0.9379	0.8892	0.6426	0.2553	0.1464	127 nM	127 nM	1.05	1.092	1.084	0.9805	0.9007	0.8389	0.5163	0.2905	288 nM	296 nM	Relative Intensity 0.3nM ([2]; 0.3nM compound, DMSO = 1): 0.9369; Relative Intensity 1nM ([2]; 1nM compound, DMSO = 1): 1.09; Relative Intensity 3nM ([2]; 3nM compound, DMSO = 1): 1.112; Relative Intensity 10nM ([2]; 10nM compound, DMSO = 1): 0.9825; Relative Intensity 30nM ([2]; 30nM compound, DMSO = 1): 0.9287; Relative Intensity 100nM ([2]; 100nM compound, DMSO = 1): 0.758; Relative Intensity 300nM ([2]; 300nM compound, DMSO = 1): 0.7526; Relative Intensity 1000nM ([2]; 1000nM compound, DMSO = 1): 0.5592; Kd [2, 10]: 145 nM; EC50 [2, 11]: 145 nM
CCn1c(-c2nonc2N)nc2c(C#CC(C)(C)O)nc(OCCNC)cc21 [GSK949675A]	1.295	1.2278	1.244	1.16	1.169	0.9393	0.5982	0.3002	221 nM	221 nM	0.987	0.9621	1.1	0.9042	0.9241	0.7846	0.5456	0.3036	171 nM	322 nM	–
COc1cc(Nc2ncc3c(C)nc(-c4cc5ccccc5[nH]4)n3n2)cc(OC)c1OC [GW869516X]	–	–	–	–	–	–	–	–	–	–	–	–	–	–	–	–	–	–	–	–	IC50 ([5]; CSNK2A2, replicate 1, read-out: NanoBRET Rep1): 135 nM; IC50 ([5]; CSNK2A2, replicate 2, read-out: NanoBRET Rep2): 503 nM; IC50 ([5]; HEK293T cells, in-cell target engagement, read-out: IC50 CSNK2A2 NanoBRET): 319 nM; IC50 ([6]; CSNK2A1, replicate 1, read-out: NanoBRET Rep1): 471 nM; IC50 ([6]; CSNK2A1, replicate 2, read-out: NanoBRET Rep2): 421 nM; IC50 ([6]; HEK293T cells, in-cell target engagement, read-out: IC50 CSNK2A1 NanoBRET): 446 nM
C[C@]12O[C@H](C[C@]1(O)CO)n1c3ccccc3c3c4c(c5c6ccccc6n2c5c31)CNC4=O [Lestaurtinib]	–	–	–	–	–	–	–	–	–	–	–	–	–	–	–	–	–	–	–	–	potency estimated from few doses [7]: 751 nM; potency estimated from few doses [8]: 396 nM
NCc1ccc(-c2nc(-c3ccncc3)c(-c3ccc(Cl)c(O)c3)[nH]2)cc1 [SB-476429-A]	–	–	–	–	–	–	–	–	–	–	–	–	–	–	–	–	–	–	–	–	Relative Intensity 0.3nM ([9]; 0.3nM compound, DMSO = 1): 0.9053; Relative Intensity 1nM ([9]; 1nM compound, DMSO = 1): 1.1; Relative Intensity 3nM ([9]; 3nM compound, DMSO = 1): 1.076; Relative Intensity 10nM ([9]; 10nM compound, DMSO = 1): 1.106; Relative Intensity 30nM ([9]; 30nM compound, DMSO = 1): 0.9763; Relative Intensity 100nM ([9]; 100nM compound, DMSO = 1): 0.9322; Relative Intensity 300nM ([9]; 300nM compound, DMSO = 1): 0.7176; Relative Intensity 1000nM ([9]; 1000nM compound, DMSO = 1): 0.4933; Kd [9, 10]: 300 nM; EC50 [9, 11]: 300 nM
